Source: US20260008760A1, “DIPEPTIDYL PEPTIDASE 1 INHIBITORS AND USES THEREOF” (Insmed Incorporated, priority 2024, published 2026)

Legend:
DPP1 in HL-60 cells [1] = target: T1, DPP1 in HL-60 cells (Homo sapiens, UniProt P53634); test: DPP1 Cell IC50 assay; assay type: cell-based; set-up: host or cells: HL-60 cells; details: 60 min pre-incubation, H-Gly-Phe-AFC substrate, average of n runs, read-out: Avg. IC50 (DPP1 Cell IC50 value ranges)
How it was run: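 Intracellular DPP1 activity read as AFC fluorescence (Ex/Em 400/505 nm) after 30 min with H-Gly-Phe-AFC (500 μM stock), following 60 min compound pre-incubation at 37° C with HL-60 cells at 5×10^5 live cells per mL in PBS. IC50 by 4-parameter fit against DMSO-only controls.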

DPP1 in HL-60 cells [2] = target: T1, DPP1 in HL-60 cells; test: DPP1 Cell Single-Point Percent Inhibition Testing; assay type: cell-based; set-up: host or cells: HL-60 cells; details: final compound concentration 5 nM, n = 1
How it was run: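 HL-60 cells in unsupplemented RPMI preincubated 60 min at 37 °C with test article (5 nM final, 0.1% DMSO), then given cell-permeable H-Gly-Phe-AFC (100 μM final) for 30 min. Fluorescence at 400/505 nm; percent inhibition versus vehicle after subtracting cell-free background and 10 μM brensocatib non-specific signal.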

human DPP1 enzyme [3] = target: T2, human DPP1 enzyme (Homo sapiens, UniProt P53634); test: Human DPP1 Enzyme IC50 Assay; assay type: biochemical; set-up: was first proteolytically processed into its mature form using recombinant human cathepsin L; purchased R&D Systems; details: activated recombinant human DPP1, 400 μM H-Gly-Arg-AMC, 10 minutes pre-incubation at 37° C., pH 6.0; average of n runs; read-out: Avg. IC50 (Human DPP1 enzyme IC50 value ranges)
How it was run: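 IC50 came from a four-parameter fit of activity relative to no-compound control, with fluorescence (Ex 350/Em 450 nm) read every 5 min for 90 min at 37 °C using 400 μM final H-Gly-Arg-AMC. Cathepsin L-matured human recombinant DPP1 was preincubated 10 min with compound at pH 6.0 (MES, DTT, 1% DMSO).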
Target sequence in this assay (P53634 25-134 limits assumed): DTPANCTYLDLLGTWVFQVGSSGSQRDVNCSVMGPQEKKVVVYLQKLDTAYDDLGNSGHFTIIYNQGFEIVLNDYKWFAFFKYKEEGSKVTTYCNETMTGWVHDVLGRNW
Target sequence in this assay (P53634 231-394 limits assumed): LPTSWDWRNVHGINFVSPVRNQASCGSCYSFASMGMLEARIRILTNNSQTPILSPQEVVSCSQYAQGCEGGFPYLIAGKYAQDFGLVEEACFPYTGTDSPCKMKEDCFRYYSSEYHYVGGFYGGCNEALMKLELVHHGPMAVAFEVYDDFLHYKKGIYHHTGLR
Target sequence in this assay (P53634 395-463 limits assumed): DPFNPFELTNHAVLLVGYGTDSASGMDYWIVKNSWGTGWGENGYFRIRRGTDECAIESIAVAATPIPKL

human DPP1 enzyme [4] = target: T2, human DPP1 enzyme; test: Human DPP1 Enzyme Single-Point Percent Inhibition Testing (HL-60 lysate); assay type: biochemical; set-up: A crude lysate of HL-60 cells (ATCC; Manassas, VA) was used as a source of human DPP1 enzyme; host or cells: HL-60 cells (crude lysate); details: final compound concentration of 10 nM, 400 μM H-Gly-Arg-AMC, n = 1
How it was run: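 Enzyme source was HL-60 cell lysate in MES pH 6.0 buffer with NaCl and DTT, pre-incubated 10 min at 37° C with 10 nM compound (final, 1% DMSO). Cleavage of 400 μM H-Gly-Arg-AMC was followed at 350/450 nm over 90 min at 37° C, and percent inhibition was taken against vehicle wells.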
Target sequence in this assay (P53634 25-463): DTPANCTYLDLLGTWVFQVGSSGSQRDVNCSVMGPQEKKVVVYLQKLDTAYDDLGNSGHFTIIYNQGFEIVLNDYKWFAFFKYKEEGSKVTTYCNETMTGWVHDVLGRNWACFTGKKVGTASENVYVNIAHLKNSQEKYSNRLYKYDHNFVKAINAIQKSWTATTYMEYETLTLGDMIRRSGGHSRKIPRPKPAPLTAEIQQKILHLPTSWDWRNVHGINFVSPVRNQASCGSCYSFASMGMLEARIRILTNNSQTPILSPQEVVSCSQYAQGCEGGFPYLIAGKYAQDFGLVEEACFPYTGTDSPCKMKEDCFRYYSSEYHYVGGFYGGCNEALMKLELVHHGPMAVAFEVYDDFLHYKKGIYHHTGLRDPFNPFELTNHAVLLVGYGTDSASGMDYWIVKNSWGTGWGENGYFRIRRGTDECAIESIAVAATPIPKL

T1 sequence (P53634 25-463): as above

| IC50 (DPP1 in HL-60 cells [1]) [nM] | inhibition at 0.005 µM (DPP1 in HL-60 cells [2]) [%] | IC50 (human DPP1 enzyme [3]) [nM] | inhibition at 0.01 µM (human DPP1 enzyme [4]) [%] | SMILES |
| --- | --- | --- | --- | --- |
| > 2.5 | ≤ 76.5 | > 15 | ≤ 40 | N#C[C@H](Cc1ccc(-c2ccc(S(=O)(=O)N3CCC3)cc2)cc1)NC(=O)[C@@H]1CNCCCO1 [Compound 19, (S)—N—((S)-2-(4′-(azetidin-1-ylsulfonyl)-[1,1′-biphenyl]-4-yl)-1-cyanoethyl)-1,4-oxazepane-2-carboxamide] |
| 1 to 2.5 | 76.5 to 93.9 | < 5 | ≥ 66.7 | COC1CNC[C@@H](C(=O)N[C@H](C#N)Cc2ccc(-c3cc4c(C)nc(C)cn4c3)cc2F)OC1 (some centres unmarked) [Compound A88] |
| – | ≤ 76.5 | – | ≥ 66.7 | CCN1C(=O)Cc2ccc(-c3ccc(C[C@@H](C#N)NC(=O)[C@@H]4CNCC[C@@H](OC)CO4)cc3)cc21 [Compound G1] |
| – | 76.5 to 93.9 | – | ≥ 66.7 | CCN1C(=O)Cc2ccc(-c3ccc(C[C@@H](C#N)NC(=O)[C@@H]4CNCC(OC)CO4)cc3)cc21 (some centres unmarked) [Compound G3] |
| – | ≥ 93.9 | – | ≥ 66.7 | CCN1C(=O)Cc2ccc(-c3ccc(C[C@@H](C#N)NC(=O)[C@@H]4CNCC(OC)CO4)c(F)c3)cc21 (some centres unmarked) [Compound G4] |
| – | ≤ 76.5 | – | 40 to 66.7 | CCN1C(=O)Cc2ccc(-c3ccc(C[C@@H](C#N)NC(=O)[C@@H]4CNC[C@@H](OC)CCO4)cc3)cc21 [Compound G5] |
| – | ≤ 76.5 | – | ≥ 66.7 | CCN1C(=O)Cc2ccc(-c3ccc(C[C@@H](C#N)NC(=O)[C@@H]4CNC[C@@H](OC)CCO4)c(F)c3)cc21 [Compound G6] |
| – | ≤ 76.5 | – | ≥ 66.7 | CCN1C(=O)Cc2ccc(-c3ccc(C[C@@H](C#N)NC(=O)[C@@H]4CN[C@@H](C)[C@H](O)CO4)c(F)c3)cc21 [Compound G8] |
| – | ≤ 76.5 | – | ≥ 66.7 | CO[C@@H]1CCNC[C@@H](C(=O)N[C@H](C#N)Cc2ccc(-c3ccc4cnn(C5CCN(C)CC5)c4c3)cc2)OC1 [Compound H3] |
| – | ≤ 76.5 | – | ≥ 66.7 | CO[C@@H]1CCNC[C@@H](C(=O)N[C@H](C#N)Cc2ccc(-c3ccc4cnn(C5CCN(C)CC5)c4c3)cc2F)OC1 [Compound H4] |
| – | ≤ 76.5 | – | ≥ 66.7 | CO[C@@H]1CCNC[C@@H](C(=O)N[C@H](C#N)Cc2ccc(-c3ccc4nnn(C)c4c3)cc2)OC1 [Compound H6] |
| – | ≤ 76.5 | – | ≥ 66.7 | CO[C@@H]1CCNC[C@@H](C(=O)N[C@H](C#N)Cc2ccc(-c3ccc4nnn(C)c4c3)cc2F)OC1 [Compound H8] |
| – | ≤ 76.5 | – | ≥ 66.7 | COC1CNC[C@@H](C(=O)N[C@H](C#N)Cc2ccc(-c3ccc4cnn(C5CCN(C)CC5)c4c3)cc2)OC1 (some centres unmarked) [Compound H9] |
| – | ≤ 76.5 | – | ≥ 66.7 | COC1CNC[C@@H](C(=O)N[C@H](C#N)Cc2ccc(-c3ccc4cnn(C5CCN(C)CC5)c4c3)cc2F)OC1 (some centres unmarked) [Compound H10] |
| – | 76.5 to 93.9 | – | ≥ 66.7 | COC1CNC[C@@H](C(=O)N[C@H](C#N)Cc2ccc(-c3ccc4cnn(C)c4c3)cc2)OC1 (some centres unmarked) [Compound H11] |
| – | 76.5 to 93.9 | – | ≥ 66.7 | COC1CNC[C@@H](C(=O)N[C@H](C#N)Cc2ccc(-c3ccc4cnn(C)c4c3)cc2F)OC1 (some centres unmarked) [Compound H13] |
| – | 76.5 to 93.9 | – | ≥ 66.7 | COC1CNC[C@@H](C(=O)N[C@H](C#N)Cc2ccc(-c3ccc4nnn(C)c4c3)cc2F)OC1 (some centres unmarked) [Compound H14] |
| – | ≤ 76.5 | – | 40 to 66.7 | CO[C@H]1CCO[C@H](C(=O)N[C@H](C#N)Cc2ccc(-c3ccc4cnn(C5CCN(C)CC5)c4c3)cc2)CNC1 [Compound H15] |
| – | ≤ 76.5 | – | ≥ 66.7 | CO[C@H]1CCO[C@H](C(=O)N[C@H](C#N)Cc2ccc(-c3ccc4cnn(C5CCN(C)CC5)c4c3)cc2F)CNC1 [Compound H16] |
| – | ≤ 76.5 | – | ≤ 40 | CO[C@H]1CCO[C@H](C(=O)N[C@H](C#N)Cc2ccc(-c3ccc4cnn(C)c4c3)cc2)CNC1 [Compound H17] |
| – | ≤ 76.5 | – | ≤ 40 | CO[C@H]1CCO[C@H](C(=O)N[C@H](C#N)Cc2ccc(-c3ccc4nnn(C)c4c3)cc2)CNC1 [Compound H18] |

| IC50 (DPP1 in HL-60 cells [1]) [nM] | inhibition at 0.005 µM (DPP1 in HL-60 cells [2]) [%] | IC50 (human DPP1 enzyme [3]) [nM] | inhibition at 0.01 µM (human DPP1 enzyme [4]) [%] | SMILES |
| --- | --- | --- | --- | --- |
| – | ≤ 76.5 | – | ≥ 66.7 | CO[C@H]1CCO[C@H](C(=O)N[C@H](C#N)Cc2ccc(-c3ccc4cnn(C)c4c3)cc2F)CNC1 [Compound H19] |
| – | ≤ 76.5 | – | 40 to 66.7 | CO[C@H]1CCO[C@H](C(=O)N[C@H](C#N)Cc2ccc(-c3ccc4nnn(C)c4c3)cc2F)CNC1 [Compound H20] |
| – | ≤ 76.5 | – | ≥ 66.7 | C[C@@H]1NC[C@@H](C(=O)N[C@H](C#N)Cc2ccc(-c3ccc4cnn(C5CCN(C)CC5)c4c3)cc2)OC[C@H]1O [Compound H21] |
| – | ≤ 76.5 | – | ≥ 66.7 | C[C@@H]1NC[C@@H](C(=O)N[C@H](C#N)Cc2ccc(-c3ccc4nnn(C)c4c3)cc2)OC[C@H]1O [Compound H24] |
| – | ≤ 76.5 | – | ≤ 40 | C[C@@H]1NC[C@@H](C(=O)N[C@H](C#N)Cc2ccc(-c3ccc4cnn(C5CCN(C)CC5)c4c3)cc2)OC[C@@H]1O [Compound H27] |
| – | ≤ 76.5 | – | ≥ 66.7 | C[C@@H]1NC[C@@H](C(=O)N[C@H](C#N)Cc2ccc(-c3ccc4cnn(C5CCN(C)CC5)c4c3)cc2F)OC[C@@H]1O [Compound H28] |
| – | ≤ 76.5 | – | ≤ 40 | C[C@@H]1NC[C@@H](C(=O)N[C@H](C#N)Cc2ccc(-c3ccc4nnn(C)c4c3)cc2)OC[C@@H]1O [Compound H30] |
| – | ≤ 76.5 | – | 40 to 66.7 | C[C@@H]1NC[C@@H](C(=O)N[C@H](C#N)Cc2ccc(-c3ccc4nnn(C)c4c3)cc2F)OC[C@@H]1O [Compound H32] |
| – | ≤ 76.5 | – | ≤ 40 | CN1CCC(n2ncc3ccc(-c4ccc(C[C@@H](C#N)NC(=O)[C@@H]5CNCCCCO5)cc4)cc32)CC1 [Compound H33] |
| – | ≤ 76.5 | – | ≥ 66.7 | CN1CCC(n2ncc3ccc(-c4ccc(C[C@@H](C#N)NC(=O)[C@@H]5CNCCCCO5)c(F)c4)cc32)CC1 [Compound H34] |
| – | ≤ 76.5 | – | ≤ 40 | Cn1ncc2ccc(-c3ccc(C[C@@H](C#N)NC(=O)[C@@H]4CNCCCCO4)cc3)cc21 [Compound H35] |
| – | ≤ 76.5 | – | ≤ 40 | Cn1nnc2ccc(-c3ccc(C[C@@H](C#N)NC(=O)[C@@H]4CNCCCCO4)cc3)cc21 [Compound H36] |
| – | ≤ 76.5 | – | 40 to 66.7 | Cn1ncc2ccc(-c3ccc(C[C@@H](C#N)NC(=O)[C@@H]4CNCCCCO4)c(F)c3)cc21 [Compound H37] |
| – | ≤ 76.5 | – | ≤ 40 | Cn1nnc2ccc(-c3ccc(C[C@@H](C#N)NC(=O)[C@@H]4CNCCCCO4)c(F)c3)cc21 [Compound H38] |
| – | ≤ 76.5 | – | 40 to 66.7 | CO[C@@H]1CCNC[C@@H](C(=O)N[C@H](C#N)Cc2ccc(-c3ccn4ccnc4c3)cc2)OC1 [Compound H39] |
| – | ≤ 76.5 | – | 40 to 66.7 | COC1CNC[C@@H](C(=O)N[C@H](C#N)Cc2ccc(-c3ccn4ccnc4c3)cc2)OC1 (some centres unmarked) [Compound H40] |
| – | ≤ 76.5 | – | ≤ 40 | CO[C@H]1CCO[C@H](C(=O)N[C@H](C#N)Cc2ccc(-c3ccn4ccnc4c3)cc2)CNC1 [Compound H41] |
| – | ≤ 76.5 | – | ≥ 66.7 | C[C@@H]1NC[C@@H](C(=O)N[C@H](C#N)Cc2ccc(-c3ccn4ccnc4c3)cc2)OC[C@H]1O [Compound H42] |
| – | ≤ 76.5 | – | ≤ 40 | C[C@@H]1NC[C@@H](C(=O)N[C@H](C#N)Cc2ccc(-c3ccn4ccnc4c3)cc2)OC[C@@H]1O [Compound H43] |
| – | ≤ 76.5 | – | ≤ 40 | N#C[C@H](Cc1ccc(-c2ccn3cnnc3c2)cc1)NC(=O)[C@@H]1CNCCCCO1 [Compound H44] |
